Here are results for 35 compounds from US9247759B2, “Identification of human T2R receptors that respond to bitter compounds that elicit the bitter taste in compositions, and the use thereof in assays to identify compounds that inhibit (block) bitter taste in compositions and use thereof” (SENOMYX, INC., priority 2007, dated 2016).

As a reminder, the IC50 is the midpoint of a concentration-inhibition curve.

Structures are written as SMILES.

hT2R8, sequence (Q9NYW2 whole entry): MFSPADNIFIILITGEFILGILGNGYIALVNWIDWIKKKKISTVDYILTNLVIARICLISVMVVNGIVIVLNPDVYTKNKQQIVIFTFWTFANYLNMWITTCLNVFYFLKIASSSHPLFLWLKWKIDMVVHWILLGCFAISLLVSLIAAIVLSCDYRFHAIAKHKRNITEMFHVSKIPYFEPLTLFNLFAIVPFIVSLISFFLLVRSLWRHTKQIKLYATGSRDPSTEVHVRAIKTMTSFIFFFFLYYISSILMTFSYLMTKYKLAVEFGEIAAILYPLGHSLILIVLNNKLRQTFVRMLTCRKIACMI

The first experiment has as its target hT2R8 (Homo sapiens (Human), UniProt Q9NYW2). The experiment can be described thus: hT2R8 antagonist high-throughput FLIPR assay, stable cell line with G16g44, agonist andrographolide. The experiment is classed as cell-based. The following applies: Table A; read-out: hT2R8 IC50. An excerpt:
After a ligand is identified for a particular hT2R, a HEK293 cell line stably expressing both the hT2R and G16gust44 are generated, facilitating future screening assays to identify other ligands that activate the particular hT2R or which modulate (block or enhance) the activation of this hT2R by another bitter ligand such as a bitter compound contained in coffee. This avoids the need for transient transfection.
To identify antagonists, cell lines stably expressing hT2R8 and hT2R14, respectively, together with the promiscuous chimeric G16g44 protein were generated as described in previous patent applications. A high-throughput assay was established using the stable cell lines and FLIPR (Fluorescent Imaging Plate Reader). An agonist of hT2R8 or hT2R14 was used to activate the receptors up to 70-80% of their respective maximal activity. For hT2R8, the agonist used was andrographolide (200 […]); for hT2R14, it was aristolochic acid (3 μM). To identify antagonists, compounds with diverse chemical structures were added together with the agonist.
To identify antagonists, cell lines stably expressing hT2R8 together with the promiscuous chimeric G16g44 protein were generated as described in previous patent applications. A high-throughput assay was established using the stable cell lines and FLIPR (Fluorescent Imaging Plate Reader). An agonist of hT2R8 was used to activate the receptors up to 70-80% of their respective maximal activity. For hT2R8, the agonist used was andrographolide (200 μM). To identify antagonists, compounds with diverse chemical structures were added together with the agonist.
As to `Cc1noc(C)c1Cn1cc(NC(=O)c2ccc3occc3c2)cn1` [Example 4-77, N-(1-((3,5-dimethylisoxazol-4-yl)methyl)-1H-pyrazol-4-yl)benzofuran-5-carboxamide], the IC50 was 1400 nM.
For `Cc1noc(C)c1Cn1cc(NC(=O)c2ccc3c(c2)OC(F)(F)O3)cn1` [Example 4-78, N-(1-((3,5-dimethylisoxazol-4-yl)methyl)-1H-pyrazol-4-yl)-2,2-difluorobenzo[d][1,3]dioxole-5-carboxamide], the half-maximal inhibitory concentration (IC50) was determined as 1300 nM.
As to `Cc1nc2cc(C(=O)Nc3cnn(Cc4c(C)noc4C)c3)ccc2[nH]1` [Example 4-79, N-(1-((3,5-dimethylisoxazol-4-yl)methyl)-1H-pyrazol-4-yl)-2-methyl-1H-benzo[d]imidazole-5-carboxamide], the 50% inhibitory concentration (IC50) was 1000 nM.
The same measure, in the same setting: as for `Cc1noc(C)c1Cn1cc(NC(=O)c2cccc(Cl)c2)cn1` [Example 4-80, 3-chloro-N-(1-((3,5-dimethylisoxazol-4-yl)methyl)-1H-pyrazol-4-yl)benzamide], the figure is 900 nM; as for `CCc1nc2cc(C(=O)Nc3cnn(Cc4c(C)noc4C)c3)ccc2o1` [Example 4-81, N-(1-((3,5-dimethylisoxazol-4-yl)methyl)-1H-pyrazol-4-yl)-2-ethylbenzo[d]oxazole-5-carboxamide], 800 nM.
Regarding `Cc1noc(C)c1Cn1cc(NC(=O)c2ccc3nccnc3c2)cn1` [Example 4-82, N-(1-((3,5-dimethylisoxazol-4-yl)methyl)-1H-pyrazol-4-yl)quinoxaline-6-carboxamide], the IC50 came out at 800 nM.
Consider `Cc1nc2ccc(C(=O)Nc3cnn(Cc4c(C)noc4C)c3)cc2o1` [Example 4-83, N-(1-((3,5-dimethylisoxazol-4-yl)methyl)-1H-pyrazol-4-yl)-2-methylbenzo[d]oxazole-6-carboxamide], for which the IC50 was 700 nM.
Same read-out and setting: under `Cc1noc(C)c1Cn1cc(NC(=O)c2ccc3[nH]nnc3c2)cn1` [Example 4-87, N-(1-((3,5-dimethylisoxazol-4-yl)methyl)-1H-pyrazol-4-yl)-1H-benzo[d][1,2,3]triazole-5-carboxamide] stands 600 nM; under `Cc1noc(C)c1Cn1cc(NC(=O)c2ccc3c(c2)OCCO3)cn1` [Example 4-88, N-(1-((3,5-dimethylisoxazol-4-yl)methyl)-1H-pyrazol-4-yl)-2,3-dihydrobenzo[b][1,4]dioxine-6-carboxamide], 400 nM.
On to `Cc1noc(C)c1Cn1cc(NC(=O)c2cc3c(cc2Br)OCCO3)cn1` [Example 4-89, 7-bromo-N-(1-((3,5-dimethylisoxazol-4-yl)methyl)-1H-pyrazol-4-yl)-2,3-dihydrobenzo[b][1,4]dioxine-6-carboxamide], for which the IC50 is 300 nM.
In the case of `Cc1noc(C)c1Cn1cc(NC(=O)c2cc3c(cc2Cl)OCCO3)cn1` [Example 4-90, 7-chloro-N-(1-((3,5-dimethylisoxazol-4-yl)methyl)-1H-pyrazol-4-yl)-2,3-dihydrobenzo[b][1,4]dioxine-6-carboxamide], the half-maximal inhibitory concentration (IC50) amounted to 100 nM.
Consider `Cc1noc(C)c1Cn1cc(NC(=O)c2cc(Cl)c3c(c2)OCCO3)cn1` [Example 4-91, 8-chloro-N-(1-((3,5-dimethylisoxazol-4-yl)methyl)-1H-pyrazol-4-yl)-2,3-dihydrobenzo[b][1,4]dioxine-6-carboxamide], for which the IC50 was 100 nM.
For the compound `CNc1cnn(Cc2c(C)noc2C)c1` [Example 4-96, 1-((3,5-dimethylisoxazol-4-yl)methyl)-N-methyl-1H-pyrazol-4-amine], the IC50 amounted to 8760 nM.
For the compound `Cc1noc(C)c1Cn1cc(N(C)C(=O)C(C)c2ccccc2)cn1` (centres unmarked) [Example 4-97, N-(1-((3,5-dimethylisoxazol-4-yl)methyl)-1H-pyrazol-4-yl)-N-methyl-2-phenylpropanamide], the IC50 came to 2130 nM.
As for `Cc1noc(C)c1Cn1cc(N(C)C(=O)[C@@H](C)c2ccccc2)cn1` [Example 4-98, (S)-N-(1-((3,5-dimethylisoxazol-4-yl)methyl)-1H-pyrazol-4-yl)-N-methyl-2-phenylpropanamide], the IC50 is 2810 nM.
Consider `Cc1noc(C)c1Cn1cc(NS(=O)(=O)c2ccccc2C#N)cn1` [Example 4-99, 2-cyano-N-(1-((3,5-dimethylisoxazol-4-yl)methyl)-1H-pyrazol-4-yl)benzenesulfonamide], for which the IC50 worked out at 1360 nM.
On the same count and under the same terms, under `Cc1noc(C)c1Cn1cc(NS(=O)(=O)c2ccccc2F)cn1` [Example 4-100, N-(1-((3,5-dimethylisoxazol-4-yl)methyl)-1H-pyrazol-4-yl)-2-fluorobenzenesulfonamide] stands 8510 nM; under `COc1ccc(OC)c(S(=O)(=O)Nc2cnn(Cc3c(C)noc3C)c2)c1` [Example 4-101, N-(1-((3,5-dimethylisoxazol-4-yl)methyl)-1H-pyrazol-4-yl)-2,5-dimethoxybenzenesulfonamide], 1630 nM.
`Cc1ccccc1S(=O)(=O)Nc1cnn(Cc2c(C)noc2C)c1` [Example 4-102, N-(1-((3,5-dimethylisoxazol-4-yl)methyl)-1H-pyrazol-4-yl)-2-methylbenzenesulfonamide]: the IC50 stood at 2150 nM.
Take `COc1ccccc1S(=O)(=O)Nc1cnn(Cc2c(C)noc2C)c1` [Example 4-103, N-(1-((3,5-dimethylisoxazol-4-yl)methyl)-1H-pyrazol-4-yl)-2-methoxybenzenesulfonamide]: the half-maximal inhibitory concentration (IC50) came out at 3800 nM.
Consider `COC(=O)c1sccc1S(=O)(=O)Nc1cnn(Cc2c(C)noc2C)c1` [Example 4-104, methyl 3-(N-(1-((3,5-dimethylisoxazol-4-yl)methyl)-1H-pyrazol-4-yl)sulfamoyl)thiophene-2-carboxylate], for which the IC50 came to 1250 nM.
The same measure, in the same setting: under `Cc1noc(C)c1Cn1cc(NC(=S)Nc2ccccc2F)cn1` [Example 4-105, 1-(1-((3,5-dimethylisoxazol-4-yl)methyl)-1H-pyrazol-4-yl)-3-(2-fluorophenyl)thiourea] stands 1630 nM.
Regarding `COc1ccccc1NC(=S)Nc1cnn(Cc2c(C)noc2C)c1` [Example 4-106, 1-(1-((3,5-dimethylisoxazol-4-yl)methyl)-1H-pyrazol-4-yl)-3-(2-methoxyphenyl)thiourea], the IC50 was found to be 2610 nM.
In the case of `Cc1noc(C)c1Cn1cc(NC(=S)Nc2cccnc2)cn1` [Example 4-107, 1-(1-((3,5-dimethylisoxazol-4-yl)methyl)-1H-pyrazol-4-yl)-3-(pyridin-3-yl)thiourea], the IC50 was 3000 nM.
Turning to `Cc1ccccc1NC(=S)Nc1cnn(Cc2c(C)noc2C)c1` [Example 4-108, 1-(1-((3,5-dimethylisoxazol-4-yl)methyl)-1H-pyrazol-4-yl)-3-o-tolylthiourea], the IC50 worked out at 3010 nM.
Still for that read-out and setting: under `Cc1noc(C)c1Cn1cc(NC(=S)Nc2cccc(C#N)c2)cn1` [Example 4-109, 1-(3-cyanophenyl)-3-(1-((3,5-dimethylisoxazol-4-yl)methyl)-1H-pyrazol-4-yl)thiourea] stands 783 nM; under `Cc1noc(C)c1Cn1cc(NC(=S)NCc2ccccc2)cn1` [Example 4-110, 1-benzyl-3-(1-((3,5-dimethylisoxazol-4-yl)methyl)-1H-pyrazol-4-yl)thiourea], 1100 nM.
The same measure, in the same setting: under `Cc1noc(C)c1Cn1cc(NC(=S)Nc2ccccc2C#N)cn1` [Example 4-111, 1-(2-cyanophenyl)-3-(1-((3,5-dimethylisoxazol-4-yl)methyl)-1H-pyrazol-4-yl)thiourea] stands 2350 nM; under `Cc1noc(C)c1Cn1cc(NC(=S)Nc2ccccc2)cn1` [Example 4-112, 1-(1-((3,5-dimethylisoxazol-4-yl)methyl)-1H-pyrazol-4-yl)-3-phenylthiourea], 2490 nM; under `COc1ccc(OC)c(NC(=S)Nc2cnn(Cc3c(C)noc3C)c2)c1` [Example 4-113, 1-(2,5-dimethoxyphenyl)-3-(1-((3,5-dimethylisoxazol-4-yl)methyl)-1H-pyrazol-4-yl)thiourea], 5240 nM.
Still for that read-out and setting: as for `COc1cccc(C(=O)Nc2nnn(Cc3c(C)noc3C)n2)c1` [Example 4-114, N-(2-((3,5-dimethylisoxazol-4-yl)methyl)-2H-tetrazol-5-yl)-3-methoxybenzamide], the figure is 1870 nM.

The same experiment, now with this note: read-out: IC50 on hT2R8 bitter receptor.
As to `COc1cc(C(=O)Nc2cnn(Cc3c(C)noc3C)c2)cc2c1OCO2` [Example 4-92, N-(1-((3,5-dimethylisoxazol-4-yl)methyl)-1H-pyrazol-4-yl)-7-methoxybenzo[d][1,3]dioxole-5-carboxamide], the IC50 turned out to be 700 nM.
As to `COc1cc(C(=O)Nc2cnn(Cc3c(C)noc3C)c2)cc2c1OCCO2` [Example 4-93, N-(1-((3,5-dimethylisoxazol-4-yl)methyl)-1H-pyrazol-4-yl)-8-methoxy-2,3-dihydrobenzo[b][1,4]dioxine-6-carboxamide], the IC50 worked out at 700 nM.
Regarding `COc1cc(C(=O)Nc2cnn(Cc3c(C)noc3C)c2)cc2c1OC(C)O2` (centres unmarked) [Example 4-94, N-(1-((3,5-dimethylisoxazol-4-yl)methyl)-1H-pyrazol-4-yl)-7-methoxy-2-methylbenzo[d][1,3]dioxole-5-carboxamide], the IC50 is 700 nM.
On to `COc1cc2c(cc1C(=O)Nc1cnn(Cc3c(C)noc3C)c1)OCCO2` [Example 4-95, N-(1-((3,5-dimethylisoxazol-4-yl)methyl)-1H-pyrazol-4-yl)-7-methoxy-2,3-dihydrobenzo[b][1,4]dioxine-6-carboxamide], for which the IC50 came to 700 nM.
